Test results as given in patent US20170311607A1, “SYNERGISTIC BACILLUS THURINGIENSIS SUBSP. AIZAWAI, BACILLUS THURINGIENSIS SUBSP. KURSTAKI AND FLUBENDIAMIDE MIXTURES FOR DIAMONDBACK MOTH, SUGARCANE BORER, SOYBEAN LOOPER, AND CORN EARWORM” (Valent BioSciences LLC, priority 2016, published 2017).

What was measured:
soybean looper larvae = assay: Leaf dip efficacy and synergy test, soybean looper larvae; type: in vivo, Chrysodeixis includens; conditions: foliar, Bta/Btk 0.26 ppm, flubendiamide 3.9 ppm, alone or in mixture
Text: (§1) The following examples were used to determine the synergy of Bacillus thuringiensis subsp. aizawai, Bacillus thuringiensis subsp. kurstaki and flubendiamide when controlling diamondback moth, beet armyworm, sugarcane borer, soybean looper, corn earworm, cabbage looper, and southwestern corn borer. Sympatico™ emulsifiable suspension (available from Valent BioSciences LLC) was used as the source of Bacillus thuringiensis subsp. aizawai and Bacillus thuringiensis kurstaki. Sympatico™ contains about a 1:0.67 ratio of Bacillus thuringiensis subsp. kurstaki fermentation solids, spores and toxins to Bacillus thuringiensis subsp. aizawai fermentation solids, spores and toxins. Belt® was used as the source of flubendiamide. The present invention is not limited to the commercial products used in the examples. In each example below, the studies were conducted as follows.
(§2) For these tests, standardized laboratory leaf dip methods were used to inoculate plant material with treatment(s). Dry, treated leaves were placed into Petri dishes (100×25 mm) containing filter paper wetted with 500 μl of distilled H2O (“dH2O”). Each dish was then infested with between 5 and 10 larvae, dependent on species. Efficacy ratings were taken at specified intervals. Synergy ratings were calculated for each test. […]

diamondback moth larvae = assay: Leaf dip efficacy and synergy test, diamondback moth larvae; type: in vivo; conditions: Plutella xylostella, foliar, Bta/Btk 0.8125 ppm, flubendiamide 0.215 ppm, alone or in mixture
Text: as §1, with “In each example below, the studies were conducted as follows.” left out
For these tests, standardized laboratory leaf dip methods were used to inoculate plant material with treatment(s). […] Synergy ratings were calculated for each test. […]
In order to determine synergy, rates below normal field rate ranges must be used. If normal field rate ranges are used, all of the larvae would die (combining a lethal or near lethal dose of Bacillus thuringiensis subsp. aizawai and Bacillus thuringiensis subsp. kurstaki with a lethal dose of flubendiamide would most likely lead to larvae death) in every treatment and synergy would not be able to be determined. […]

beet armyworm larvae = assay: Leaf dip efficacy and synergy test, beet armyworm larvae; type: in vivo; conditions: Spodoptera exigua, foliar, Bta/Btk 0.8125 ppm, flubendiamide 0.49 ppm, alone or in mixture
Text: as §1, §2

corn earworm larvae = assay: Leaf dip efficacy and synergy test, corn earworm larvae; type: in vivo; conditions: Helicoverpa zea, foliar, Bta/Btk 2.6 ppm, flubendiamide 0.975 ppm, alone or in mixture
Text: as §1, §2

sugarcane borer larvae = assay: Leaf dip efficacy and synergy test, sugarcane borer larvae; type: in vivo; conditions: Diatraea saccharalis, foliar, Bta/Btk 0.8125 ppm, flubendiamide 2.15 ppm, alone or in mixture
Text: as §1, §2

[1] = system: southwestern corn borer larvae; assay: Leaf dip efficacy and synergy test, southwestern corn borer larvae; type: in vivo; conditions: foliar, Bta/Btk 0.8125 ppm, flubendiamide 0.39 ppm, alone or in mixture
Text: as §1, §2

cabbage looper larvae = assay: Leaf dip efficacy and synergy test, cabbage looper larvae; type: in vivo; conditions: Trichoplusia ni, foliar, Bta/Btk 0.8125 ppm, flubendiamide 0.49 ppm, alone or in mixture
Text: as §1, §2

`Cc1cc(C(F)(C(F)(F)F)C(F)(F)F)ccc1NC(=O)c1cccc(I)c1C(=O)NC(C)(C)CS(C)(=O)=O` [Flubendiamide, 3-iodo-N′-(2-mesyl-1,1-dimethylethyl)-N-{4-[1,2,2,2-tetrafluoro-1-(trifluoromethyl)ethyl]-o-tolyl}phthalamide] showed an Emax at 3.9 ppm (soybean looper larvae; 24 h after treatment) of 13%, an Emax at 3.9 ppm (soybean looper larvae; 48 h after treatment) of 38% and an Emax at 0.215 ppm (diamondback moth larvae; 24 h after treatment) of 4%. It also gave an Emax at 0.215 ppm (diamondback moth larvae; 48 h after treatment) of 42%, an Emax at 0.49 ppm (beet armyworm larvae; 24 h after treatment) of 10% and an Emax at 0.49 ppm (beet armyworm larvae; 48 h after treatment) of 23%. For the same compound, the Emax at 0.975 ppm (corn earworm larvae; 24 h after treatment) was 33%, the Emax at 0.975 ppm (corn earworm larvae; 48 h after treatment) was 33% and the Emax at 2.15 ppm (sugarcane borer larvae; 24 h after treatment) was 24%. For the same compound, the Emax at 2.15 ppm (sugarcane borer larvae; 48 h after treatment) was 33%, the Emax at 0.39 ppm ([1]; 24 h after treatment) was 49% and the Emax at 0.39 ppm ([1]; 48 h after treatment) was 51%. The Emax at 0.49 ppm (cabbage looper larvae; 24 h after treatment) was 9% and the Emax at 0.49 ppm (cabbage looper larvae; 48 h after treatment) was 65%.
